Test results from US20050260158A1, “Human stem cell materials and methods” (priority 2003, published 2005).
Where two headings read alike, the source gives them in different places.

Experiments:
[1] = tested on: MDSC cultures; assay: Insulin release from MDSC cultures (insulin ELISA); assay type: cell-based, human; set-up: insulin release with osmolarity control: dose or concentration left out as unconfirmed
Method: Insulin release. MDSC cultures incubated in 24-well tissue culture plates (Costar, Cambridge, Mass.) at 70-80% confluence were treated for 4-5 days with LPS or CD40Ab. Insulin secretion was assessed as previously described in Schuit, F., et al., J. Biol. Chem. 272:18572-18579 (1997), using an insulin ELISA kit (Linco Research, MO). When required, the untreated or treated cultures were also pre-incubated for 30 min with […] diazoxide, 10 mM tolbudamide, or […] IBMX.

[2] = tested on: MDSC cultures; assay: EGF-induced epithelial cell differentiation of MDSC cultures; assay type: cell-based, human; settings: 100 ng/ml EGF, 4 days
Excerpt: To determine whether MDSCs differentiate into lineages other than those of blood cells, the ability to differentiate into epithelial cells was initially tested. […] Only 4±1% of control cells stained for keratins and 3±2% for E-cadherin. Cells that stained positive for E-cadherin consistently stained for keratins.

[3] = tested on: MDSC colonies Clone 1 and Clone 2; settings: seven days; for Immunostained cells (%), Keratins (Epithelial): 100 ng/ml EGF; for Immunostained cells (%), AFP (Hepatocyte): 50 ng/ml HGF; for Immunostained cells (%), vWF (Endothelial): 50 ng/ml VEGF; for Immunostained cells (%), MAP1-B (Neuronal): 200 ng/ml NGF
Method: To determine whether progeny of colonies derived from single MDSCs can be induced to differentiate into distinct cell lineages, cells from a five-day, 50 ng/ml, M-CSF-treated culture enriched to contain 99.97% peripheral blood monocytes were inoculated into 12 U-bottom tissue culture plates, 96 wells each, at 0.8 cells/well in 0.1-0.2 ml growth medium. The cells were then incubated in the presence of 50 ng/ml M-CSF and 1,000 units/ml LIF for 15-20 days. Additionally, one plate was incubated with 25% conditioned medium from a five-day, 50 ng/ml, M-CSF treated culture. […] The few wells that contained more than one cell were excluded from further experimentation. Medium was replaced every 5-7 days.
At 45-52 days, these cells were dispersed by forceful pipetting, without lidocaine, into flat-bottom, 96-well, tissue culture plates. […] Two colonies of MDSCs, each of which had arisen from a single cell, were chosen for further differentiation experiments and were termed Clone 1 and Clone 2. […] These antibodies separately recognized cell-surface markers that included the T lymphocyte marker CD3, the epithelial marker keratin, the endothelial marker vWF, the neuronal marker MAP1-B, and the hepatocyte marker AFP.

[4] = tested on: MDSC cultures; assay: HGF-induced hepatocyte differentiation of MDSC cultures; assay type: cell-based, human
Excerpt: A smaller fraction of 33±4% also immunostained for cytokeratin 7, which is a marker of bile duct epithelium (Ruck et al., Histopathology 31: 324-329 (1997)). Only 8±5% of control cells immunostained for albumin, 6±5% for AFP, and 7±3% for cytokeratin 7.

[5] = tested on: MDSC cultures; assay: VEGF-induced endothelial cell differentiation of MDSC cultures; settings: 50 ng/ml VEGF, 5-7 days
Method: MDSC cultures prepared as described above were treated with 50 ng/ml of recombinant human vascular endothelial growth factor165 isoform (VEGF) for 5-7 days.

[6] = tested on: MDSC cultures; assay: bNGF-induced neuronal cell differentiation of MDSC cultures; assay type: cell-based, human; settings: 200 ng/ml bNGF
Method: To examine the ability of MDSCs to mature along yet another cell lineage, the effect of nerve growth factor (bNGF), an inducer of neuronal differentiation (McAllister et al., Cell. Mol. Life Sci., 58:1054-1060 (2001)), was tested. […] After 5-8 days these processes, some of which were exceedingly long, formed cell-cell contacts and created the appearance of a neural network. These mature cells were further characterized by immunostaining for neuron-specific enolase (NSE), neurofilament (NF) and microtubule-associated protein-1B (MAP-1B), which are well-known markers of neuronal cells (Encinas et al., J. Neurochem., 75:991-1003 (2000)).

[7] = tested on: freshly cultured peripheral blood monocytes; assay: bNGF treatment of freshly cultured peripheral blood monocytes; assay type: cell-based, human; settings: bNGF for 7 or 20 days
[8] = tested on: MDSCs; assay: Dispersion of MDSCs from the culture dish by standard digestion; assay type: cell-based, human; settings: standard digestion for up to 60 minutes
Method: In this example, a feature of the MDSCs is resistance to dispersion by trypsin and/or EDTA, or dispase. […] Therefore, to obtain cell suspensions for subculture, the MDSCs were dispersed by forceful pipetting after incubation with 2% lidocaine in a PBS solution for 5-8 minutes, with the exception of the work described in Example 8.

[9] = tested on: human peripheral blood monocytes; assay: Generation and growth of MDSCs in cultured peripheral blood monocytes (morphological examination); assay type: cell-based
Method: Peripheral blood monocyte (PBM) preparations from about 50 ml buffy coats samples (each from 500 ml peripheral blood) of healthy individuals (LifeSource Blood Services, Glenview, Ill.) were obtained by a selective attachment method as previously described (Hoklland, M. et al., Cell Biology, a laboratory handbook, Celis J. E. ed., Academic Press, 1: 179-181 (1994)). Buffy coat cell samples of 20-25 ml, which were diluted earlier with an equal volume of RPMI 1640 medium (Life Technologies, Inc.), were carefully layered over 20 ml Ficoll-Hypaque (γ=1.077) in 50 ml centrifuge tubes and then centrifuged using a Beckman CPKR centrifuge and a GH-3.7 horizontal rotor at 3,500 rpm (2700 g) for 25 minutes at 4° C. After carefully harvesting the mononuclear cells at the interface, cells were washed 2-3 times with RPMI 1640 medium by centrifugation using a Beckman CPKR centrifuge and a GH-3.7 horizontal rotor at 1,000 rpm (250 g) for 10 minutes. The cells were then used for culture and/or stored in liquid nitrogen in a 90% bovine calf serum and 10% dimethyl sulfoxide solution. The cells, including those obtained from storage in liquid nitrogen, were incubated at 2-3×10^7 cells/15 cm dish. After 8-12 hours incubation at 37° C. (8% CO2), the floating cells were removed and the dishes were rinsed 5 times with RPMI 1640 medium. The attached cells were then detached from the surface of the dishes by forceful pipetting with 5-10 ml of RPMI 1640 medium supplemented with 10% bovine calf serum.
The percentage of PBM was verified by immunostaining with an R-phycoerythin-conjugated mouse anti-human CD14 monoclonal antibody using a Becton Dickinson FACScan. The fraction of CD14 cells in these cell preparations, which were usually used in the experiments, was 90-95%. In a number of experiments, the CD14-immunostained cells were further isolated to a purity of 99.97% by using a droplet cell-sorting method by means of a 5 detector Becton Dickinson FACStarPlus Cell Sorter. The isolated PBMs were inoculated at 1×10^5 cells/ml in 8-well LabTek chamber slides (Nunc, Inc., Naperville, Ill.) at 0.4 ml/well in a 37° C. humidified atmosphere containing 8% CO2. Every five to seven days, one-half of the culture medium was replaced with fresh growth medium. This medium consisted of RPMI-1640 supplemented with 10% heat-inactivated bovine calf serum (Harlan, Indianapolis, Ind.), 100 units/ml penicillin, 100 μg/ml streptomycin, and 2 mM L-glutamine (Life Technologies).
Five preparations of cultured human peripheral blood monocytes, each from a different individual, were treated with 50 ng/ml M-CSF (Zhoa et al., Proc. Natl. Acad. Sci., 100:2426-2431 (2003); incorporated herein by reference in its entirety). After five days of incubation, the cultures contained two major morphologically distinct subsets of cells. The less abundant of the two subsets, containing about 25-35% of the total cells, was composed of elongated cells that morphologically resembled fibroblasts and were termed monocyte-derived stem cells (MDSCs). The other subset, containing about 65-75% of the total, was composed of standard macrophages, which were termed s-macrophages or standard macrophages (s-MΦ) (FIG. 1). […]
In order to determine whether the MDSCs were simply replicating progenitors of s-MΦ, five preparations of cultured peripheral blood monocytes, each from a different human, were treated with 50 ng/ml M-CSF and the number of MDSCs and s-MΦ were determined over a period of 14 days by morphological examination. […]

[10] = 50 ng/ml M-CSF, five days, five monocyte preparations

OC[C@@H](O)[C@@H](O)[C@H](O)[C@H](O)CO [Mannite]
insulin release with osmolarity control [1]: little to no insulin release

CC1=NS(=O)(=O)c2cc(Cl)ccc2N1 [diazoxide]
effect on LPS- or CD40Ab-induced insulin release ([1]; high glucose, 30 min pre-incubation): effectively inhibited

CCCCNC(=O)NS(=O)(=O)c1ccc(C)cc1 [tolbutamide]
effect on LPS- or CD40Ab-induced insulin release ([1]; low glucose (5 mM), 30 minutes, 10 μM tolbudamide, 100 μM IBMX): markedly stimulated

EGF: promoter of epithelial cell growth and differentiation
MDSCs displaying epithelial cell morphology [2]: about 70% | cells immunostaining for E-cadherin [2]: 68±5% | cells immunostaining for pan-keratins [2]: 71±4% | Immunostained cells (%), Keratins (Epithelial) ([3]; Clone 1): 89% | Immunostained cells (%), Keratins (Epithelial) ([3]; Clone 2): 76%

HGF: recombinant human hepatocyte growth factor
cells displaying round or oval-like flattened morphology ([4]; 100 ng/ml HGF, 5-7 days): 75-80% | cells immunostaining for cytokeratin 7 ([4]; 100 ng/ml HGF, 5-7 days): 33±4% | treated cells immunostaining for AFP ([4]; 100 ng/ml HGF, 5-7 days): 81±7% | treated cells immunostaining for albumin ([4]; 100 ng/ml HGF, 5-7 days): 75±7% | Percentage of cells displaying immunostaining for AFP ([4]; HGF 50 ng/ml (Table 3)): 81 ± 7% | Percentage of cells displaying immunostaining for Albumin ([4]; HGF 50 ng/ml (Table 3)): 75 ± 7% | Percentage of cells displaying immunostaining for Cytokeratin 7 ([4]; HGF 50 ng/ml (Table 3)): 33 ± 4% | Immunostained cells (%), AFP (Hepatocyte) ([3]; Clone 1): 88% | Immunostained cells (%), AFP (Hepatocyte) ([3]; Clone 2): 75%

VEGF
cells displaying endothelial cell morphology [5]: about 70% | cells immunostaining for VEGF-R2, VEGF-R3 and vWF [5]: 74±3% | cells immunostaining for neuronal markers NSE, NF and MAP-1B [5]: 31±4% | Immunostained cells (%), vWF (Endothelial) ([3]; Clone 1): 80% | Immunostained cells (%), vWF (Endothelial) ([3]; Clone 2): 87%

bNGF: nerve growth factor, an inducer of neuronal differentiation
MDSCs displaying neuronal morphology [6]: about 90% | cells with immunostaining for NSE, NF and MAP-1B ([6]; 5-8 days): about 90% | cells with robust immunostaining for NSE, NF and MAP-1B ([6]; three days): 25% | Immunostained cells (%), MAP1-B (Neuronal) ([3]; Clone 1): 83% | Immunostained cells (%), MAP1-B (Neuronal) ([3]; Clone 2): 80% | neuronal differentiation [7]: Little to no neuronal differentiation

trypsin
removal of MDSCs from the surface of the culture dish [8]: failed to remove the MDSCs

B1: M-CSF: macrophage colony-stimulating factor, mitogenic compound used to propagate MDSCs (protein, UniProt P09603 33-554, looked up)
Macrophage colony-stimulating …: EEVSEYCSHMIGSGHLQSLQRLIDSQMETSCQITFEFVDQEQLKDPVCYLKKAFLLVQDIMEDTMRFRDNTPNAIAIVQLQELSLRLKSCFTKDYEEHDKACVRTFYETPLQLLEKVKNVFNETKNLLDKDWNIFSKNCNNSFAECSSQDVVTKPDCNCLYPKAIPSSDPASVSPHQPLAPSMAPVAGLTWEDSEGTEGSSLLPGEQPLHTVDPGSAKQRPPRSTCQSFEPPETPVVKDSTIGGSPQPRPSVGAFNPGMEDILDSAMGTNWVPEEASGEASEIPVPQGTELSPSRPGGGSMQTEPARPSNFLSASSPLPASAKGQQPADVTGTALPRVGPVRPTGQDWNHTPQKTDHPSALLRDPPEPGSPRISSLRPQGLSNPSTLSAQPQLSRSHSSGSVLPLGELEGRRSTRDRRSPAEPEGGPASEGAARPLPRFNSVPLTDTGHERQSEGSFSPQLQESVFHLLVPSVILVLLAVGGLLFYRWRRRSHQEPQRADSPLEQPEGSPLTQDDRQVELPV
MDSCs in confluent cultures ([9]; 50 ng/ml M-CSF, after day 10): 80-90% | MDSC population replication interval ([9]; 50 ng/ml M-CSF, estimated from growth curve after 6 days): three | MDSCs, share of the total cells [9, 10]: 25-35% | standard macrophages (s-MΦ), share of the total cells [9, 10]: 65-75% | cells with MDSC morphology ([9]; 50 ng/ml, 7-9 days): 70-80%
